Measured values reported in ChEMBL document CHEMBL1921696, “Synthesis and biological evaluation of salicylate-based compounds as a novel class of methionine aminopeptidase inhibitors” (Bioorg Med Chem Lett, 2011).
Values after ≈ are worked out from the molar mass of the structure shown.

Key:
[1] = Inhibition of Escherichia coli recombinant methionine aminopeptidase expressed in Escherichia coli BL21 (DE3) using MetAMC as substrate in presence of Co(II)
Escherichia coli = assay: Antibacterial activity against Escherichia coli AS19 after 10 hrs by fluorescence assay; format: functional, organism-based; conditions: AS19, 10 h
[2] = Inhibition of Escherichia coli recombinant methionine aminopeptidase expressed in Escherichia coli BL21 (DE3) using MetAMC as substrate in presence of Fe(II)
[3] = Inhibition of Escherichia coli recombinant methionine aminopeptidase expressed in Escherichia coli BL21 (DE3) using MetAMC as substrate in presence of Mn(II)

| Structure (SMILES) | IC50 [1] [µM] | IC50 (Escherichia coli) [µM] | MIC (Escherichia coli) [µg/mL] | IC50 [2] [µM] | IC50 [3] [µM] |
| --- | --- | --- | --- | --- | --- |
| O=C(O)c1cc(-c2ccc(Cl)s2)c(Cl)cc1O | 74.1 | 48.5 | 30 (≈ 104 µM) | 4.9 | 36.6 |
| Cc1ccc(-c2ccc(C(=O)O)cc2F)s1 | 329 | 871 | 306 (≈ 1300 µM) | 253 | 336 |
| COc1ccc(C(=O)O)cc1-c1cccs1 | > 500 | > 1000 | > 234 | 192 | 17.4 |
| COc1ccc(C(=O)O)cc1-c1ccc(C)s1 | 464 | > 1000 | > 248 | 167 | 33.8 |
| O=C(O)c1cc(-c2cccs2)c(Cl)cc1O | 88.1 | 74.6 | 38 (≈ 149 µM) | 3.1 | 33.7 |
| COc1cc(Cl)c(-c2cccs2)cc1C(=O)O | 203 | > 1000 | > 268 | 208 | 19.1 |
| O=C(O)c1ccc(-c2ccc(Cl)s2)c(F)c1 | 166 | 641 | 297 (≈ 1160 µM) | 203 | 118 |
| O=C(O)c1ccc(-c2ccc(Cl)s2)cc1O | 87.7 | 34.1 | 28 (≈ 110 µM) | 73 | 62.7 |
| O=C(O)c1ccc(-c2cccs2)cc1 | 249 | > 1000 | > 204 | > 500 | 159 |
| O=C(O)c1ccc(-c2cccs2)cc1O | 65.2 | 112 | 100 (≈ 454 µM) | 39.1 | 80.2 |
| COc1cc(Cl)c(-c2ccc(C)s2)cc1C(=O)O | 70.9 | > 1000 | > 282 | 106 | 11.4 |
| Cc1ccc(-c2cc(C(=O)O)c(O)cc2Cl)s1 | 77.4 | 161 | 87 (≈ 324 µM) | 6.8 | 37.8 |
| COc1cc(-c2cc(Cl)sc2Cl)ccc1C(=O)O | 290 | 829 | 521 (≈ 1720 µM) | > 500 | 97.3 |
| O=C(O)c1ccc(-c2cc(Cl)sc2Cl)cc1O | 118 | 51.4 | 33 (≈ 114 µM) | 29.9 | 97.5 |
| O=C(O)c1ccc(-c2cccs2)c(F)c1 | 251 | > 1000 | > 222 | 267 | 143 |
| COc1cc(-c2cccs2)ccc1C(=O)O | 254 | > 1000 | > 234 | 500 | 89.8 |
| COc1cc(-c2ccc(C)s2)ccc1C(=O)O | 256 | 550 | 272 (≈ 1100 µM) | 270 | 160 |
| Cc1ccc(-c2ccc(C(=O)O)c(O)c2)s1 | 81 | 73.1 | 47 (≈ 201 µM) | 109 | 90.7 |
